Source: US12516039B2, “N-linked isoquinoline amides as LRRK2 inhibitors, pharmaceutical compositions, and uses thereof” (Merck Sharp & Dohme LLC, priority 2020, dated 2026)

Target: T1, GST-tagged truncated human mutant G2019S LRRK2 (Homo sapiens, UniProt Q5S007, G2019S)
T1 construct: GST-tagged truncated human mutant G2019S LRRK2; purchased Life Technologies Corporation (Carlsbad, CA)
Assay: LRRK2 G2019S Km ATP LanthaScreen assay
Type: biochemical
Conditions: 134 μM ATP (Km ATP), LRRKtide substrate, mean of several tests, read-out: LRRK2 pIC50 (converted)
Procedure, shortened: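 GST-tagged truncated human LRRK2 G2019S (1.25 nM enzyme solution) was preincubated 15 min with compound, then reacted 90 min at ambient temperature with fluorescein-LRRKtide (400 nM solution) and 134 μM ATP (Km) in Tris pH 8.5. EDTA stop; Tb anti-phospho-LRRKtide TR-FRET (520/495 ratio). IC50 from 4-parameter fits, mean of several runs.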

T1 sequence (Q5S007 970-2527 G2019S limits assumed): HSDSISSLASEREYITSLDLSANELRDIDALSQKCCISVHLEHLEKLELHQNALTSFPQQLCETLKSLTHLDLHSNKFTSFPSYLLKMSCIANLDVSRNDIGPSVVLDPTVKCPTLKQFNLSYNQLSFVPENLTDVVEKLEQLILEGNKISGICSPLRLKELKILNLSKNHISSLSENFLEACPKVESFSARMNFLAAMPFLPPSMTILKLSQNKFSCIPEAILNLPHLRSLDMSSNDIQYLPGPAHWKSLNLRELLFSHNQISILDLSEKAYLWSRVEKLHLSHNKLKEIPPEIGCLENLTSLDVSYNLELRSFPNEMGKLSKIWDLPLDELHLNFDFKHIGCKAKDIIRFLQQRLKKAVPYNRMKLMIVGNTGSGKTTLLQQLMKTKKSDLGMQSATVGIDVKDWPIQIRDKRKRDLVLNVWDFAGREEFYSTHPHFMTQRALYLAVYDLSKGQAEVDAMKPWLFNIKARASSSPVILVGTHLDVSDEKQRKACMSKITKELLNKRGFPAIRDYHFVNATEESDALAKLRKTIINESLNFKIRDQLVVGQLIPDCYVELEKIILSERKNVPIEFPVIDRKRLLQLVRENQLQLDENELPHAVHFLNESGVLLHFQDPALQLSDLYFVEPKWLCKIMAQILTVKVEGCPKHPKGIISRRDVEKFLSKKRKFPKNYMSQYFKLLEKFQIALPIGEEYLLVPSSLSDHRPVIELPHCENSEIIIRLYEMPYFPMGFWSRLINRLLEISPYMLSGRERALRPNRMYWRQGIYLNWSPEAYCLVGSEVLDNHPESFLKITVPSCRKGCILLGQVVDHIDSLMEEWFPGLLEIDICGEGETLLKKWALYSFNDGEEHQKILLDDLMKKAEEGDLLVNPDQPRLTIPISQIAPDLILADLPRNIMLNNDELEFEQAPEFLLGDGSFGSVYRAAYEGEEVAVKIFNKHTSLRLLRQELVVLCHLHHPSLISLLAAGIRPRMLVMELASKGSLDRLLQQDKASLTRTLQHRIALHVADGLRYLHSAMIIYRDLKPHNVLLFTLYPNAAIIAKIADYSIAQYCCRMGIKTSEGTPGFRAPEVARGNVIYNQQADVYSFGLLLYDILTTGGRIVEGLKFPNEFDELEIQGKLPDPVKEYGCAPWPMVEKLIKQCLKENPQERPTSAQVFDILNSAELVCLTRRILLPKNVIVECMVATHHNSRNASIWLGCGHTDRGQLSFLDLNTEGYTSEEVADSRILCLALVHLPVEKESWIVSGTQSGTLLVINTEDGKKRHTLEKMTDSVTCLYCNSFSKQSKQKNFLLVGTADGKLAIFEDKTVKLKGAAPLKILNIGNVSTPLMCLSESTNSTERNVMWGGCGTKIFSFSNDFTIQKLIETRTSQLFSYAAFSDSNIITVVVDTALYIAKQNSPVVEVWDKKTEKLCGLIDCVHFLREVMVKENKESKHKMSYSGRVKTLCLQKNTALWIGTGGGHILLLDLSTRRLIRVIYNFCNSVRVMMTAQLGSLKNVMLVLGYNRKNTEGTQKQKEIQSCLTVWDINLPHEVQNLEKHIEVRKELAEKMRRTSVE

Row | Compound | IC50
1 | CCC1C(C(=O)Nc2cc3cc(N4CCN(C5(C)CCOC5)CC4)c(C)cc3cn2)C1c1cnn(C)c1 (single isomer, unassigned) [Ex-10.38, (1R,2R,3R, 1R,2S,3R, 1S,2R,3S, or 1S,2S,3S)-2-ethyl-N-[7-methyl-6-[4-((R or S)-3-methyltetrahydrofuran-3-yl)piperazin-4-ium-1-yl]-3-isoquinolyl]-3-(1-methylpyrazol-4-yl)cyclopropanecarboxamide] | 0.759 nM
2 | CC1(N2CCN(c3cc4cc(NC(=O)C5CCC5C#N)ncc4cc3Cl)CC2)COCC1O (single isomer, unassigned) [Ex-10.39, (1R,2R of 1S,2S)-N-[7-chloro-6-[4-((3R,4R or 3S,4S)-4-hydroxy-3-methyl-tetrahydrofuran-3-yl)piperazin-1-yl]-3-isoquinolyl]-2-cyano-cyclobutanecarboxamide] | 0.0813 nM
3 | Cc1cc2cnc(NC(=O)C3CCOC(C)(C)C3)cc2cc1N1CCN(C2(C)CCOC2)CC1 (single isomer, unassigned) [Ex-10.41, (4R or 4S)-2,2-dimethyl-N-[7-methyl-6-[4-((R or S)-3-methyltetrahydrofuran-3-yl)piperazin-1-yl]-3-isoquinolyl]tetrahydropyran-4-carboxamide] | 0.309 nM
4 | Cc1cc2cnc(NC(=O)C3CCOC(C)(C)C3)cc2cc1N1CCN(C2(C)CCOC2)CC1 (single isomer, unassigned) [Ex-10.42, (4R or 4S)-2,2-dimethyl-N-[7-methyl-6-[4-((R or S)-3-methyltetrahydrofuran-3-yl)piperazin-1-yl]-3-isoquinolyl]tetrahydropyran-4-carboxamide] | 0.525 nM
5 | Cc1cc2cnc(NC(=O)C3CCOC(C)(C)C3)cc2cc1N1CCN(C2(C)CCOC2)CC1 (single isomer, unassigned) [Ex-10.43, (4R or 4S)-2,2-dimethyl-N-[7-methyl-6-[4-((R or S)-3-methyltetrahydrofuran-3-yl)piperazin-1-yl]-3-isoquinolyl]tetrahydropyran-4-carboxamide] | 19.5 nM
6 | Cc1cc2cnc(NC(=O)C3CCOC(C)(C)C3)cc2cc1N1CCN(C2(C)CCOC2)CC1 (single isomer, unassigned) [Ex-10.44, (4R or 4S)-2,2-dimethyl-N-[7-methyl-6-[4-((R or S)-3-methyltetrahydrofuran-3-yl)piperazin-1-yl]-3-isoquinolyl]tetrahydropyran-4-carboxamide] | 209 nM
7 | Cc1cc2cnc(NC(=O)C3C4CCOCC43)cc2cc1N1CCN(C2(C)CCOC2)CC1 (single isomer, unassigned) [Ex-10.45, (1S,6R,7R, 1R,6S,7R, or 1R, 6S,7S, or 1S,6S,7S)-N-(7-methyl-6-(4-((R or S)-3-methyltetrahydrofuran-3-yl)piperazin-1-yl)isoquinolin-3-yl)-3-oxabicyclo[4.1.0]heptane-7-carboxamide] | 0.145 nM
8 | Cc1cc2cnc(NC(=O)C3C4CCOCC43)cc2cc1N1CCN(C2(C)CCOC2)CC1 (single isomer, unassigned) [Ex-10.46, (1S,6R,7R, 1R,6S,7R, or 1R, 6S,7S, or 1S,6S,7S)-N-(7-methyl-6-(4-((R or S)-3-methyltetrahydrofuran-3-yl)piperazin-1-yl)isoquinolin-3-yl)-3-oxabicyclo[4.1.0]heptane-7-carboxamide] | 0.457 nM
9 | Cc1cc2cnc(NC(=O)C3C4CCOCC43)cc2cc1N1CCN(C2(C)CCOC2)CC1 (single isomer, unassigned) [Ex-10.47, (1S,6R,7R, 1R,6S,7R, or 1R, 6S,7S, or 1S,6S,7S)-N-(7-methyl-6-(4-((R or S)-3-methyltetrahydrofuran-3-yl)piperazin-1-yl)isoquinolin-3-yl)-3-oxabicyclo[4.1.0]heptane-7-carboxamide] | 10.2 nM
10 | Cc1cc2cnc(NC(=O)C3C4CCOCC43)cc2cc1N1CCN(C2(C)CCOC2)CC1 (single isomer, unassigned) [Ex-10.48, (1S,6R,7R, 1R,6S,7R, or 1R, 6S,7S, or 1S,6S,7S)-N-(7-methyl-6-(4-((R or S)-3-methyltetrahydrofuran-3-yl)piperazin-1-yl)isoquinolin-3-yl)-3-oxabicyclo[4.1.0]heptane-7-carboxamide] | 17.4 nM
11 | CCC1C(C(=O)Nc2cc3cc(N4CCN(C5(C)COCC5F)CC4)c(Cl)cc3cn2)C1c1ccn(C)n1 (single isomer, unassigned) [Ex-10.49, (1R,2R,3R, 1R,2S,3R, or 1S,2R,3S, or 1S,2S,3S)-N-[7-chloro-6-[4-((3R,4R or 3S,4S)-4-fluoro-3-methyl-tetrahydrofuran-3-yl)piperazin-1-yl]-3-isoquinolyl]-2-ethyl-3-(1-methylpyrazol-3-yl)cyclopropanecarboxamide] | 0.0813 nM
12 | CCC1C(C(=O)Nc2cc3cc(N4CCN(C5(C)COCC5F)CC4)c(Cl)cc3cn2)C1c1ccn(C)n1 (single isomer, unassigned) [Ex-10.50, (1R,2R,3R, 1R,2S,3R, or 1S,2R,3S, or 1S,2S,3S)-N-[7-chloro-6-[4-((3R,4R or 3S,4S)-4-fluoro-3-methyl-tetrahydrofuran-3-yl)piperazin-1-yl]-3-isoquinolyl]-2-ethyl-3-(1-methylpyrazol-3-yl)cyclopropanecarboxamide] | 0.0813 nM
13 | CCC1C(C(=O)Nc2cc3cc(N4CCN(C5(C)COCC5F)CC4)c(Cl)cc3cn2)C1c1ccn(C)n1 (single isomer, unassigned) [Ex-10.51, (1R,2R,3R, 1R,2S,3R, or 1S,2R,3S, or 1S,2S,3S)-N-[7-chloro-6-[4-((3R,4R or 3S,4S)-4-fluoro-3-methyl-tetrahydrofuran-3-yl)piperazin-1-yl]-3-isoquinolyl]-2-ethyl-3-(1-methylpyrazol-3-yl)cyclopropanecarboxamide] | 0.0813 nM
14 | CCC1C(C(=O)Nc2cc3cc(N4CCN(C5(C)COCC5F)CC4)c(Cl)cc3cn2)C1c1ccn(C)n1 (single isomer, unassigned) [Ex-10.52, (1R,2R,3R, 1R,2S,3R, or 1S,2R,3S, or 1S,2S,3S)-N-[7-chloro-6-[4-((3R,4R or 3S,4S)-4-fluoro-3-methyl-tetrahydrofuran-3-yl)piperazin-1-yl]-3-isoquinolyl]-2-ethyl-3-(1-methylpyrazol-3-yl)cyclopropanecarboxamide] | 0.603 nM
15 | CC1C(C(=O)Nc2cc3cc(N4CCN(C5(C)COCC5O)CC4)c(Cl)cc3cn2)C1c1ccn(C)n1 (single isomer, unassigned) [Ex-10.53, (1R,2R,3R, 1R,2S,3R, or 1S,2R,3S, or 1S,2S,3S)-N-[7-chloro-6-[4-((3R,4R or 3S,4S)-4-hydroxy-3-methyl-tetrahydrofuran-3-yl)piperazin-1-yl]-3-isoquinolyl]-2-methyl-3-(1-methylpyrazol-3-yl)cyclopropanecarboxamide] | 0.0813 nM
16 | Cn1ncc(C2CC2C(=O)Nc2cc3cc(N4CCN(C5(C)COCC5F)CC4)c(Cl)cc3cn2)c1C(F)(F)F (single isomer, unassigned) [Ex-10.61, (1R,2R or 1S,2S)-N-[7-chloro-6-[4-((3R,4R or 3S,4S)-4-fluoro-3-methyl-tetrahydrofuran-3-yl)piperazin-4-ium-1-yl]-3-isoquinolyl]-2-[1-methyl-5-(trifluoromethyl)pyrazol-4-yl]cyclopropanecarboxamide] | 3.02 nM
17 | Cn1ncc(C2CC2C(=O)Nc2cc3cc(N4CCN(C5(C)COCC5F)CC4)c(Cl)cc3cn2)c1C(F)(F)F (single isomer, unassigned) [Ex-10.62, (1R,2R or 1S,2S)-N-[7-chloro-6-[4-((3R,4R or 3S,4S)-4-fluoro-3-methyl-tetrahydrofuran-3-yl)piperazin-4-ium-1-yl]-3-isoquinolyl]-2-[1-methyl-5-(trifluoromethyl)pyrazol-4-yl]cyclopropanecarboxamide] | 0.0813 nM
18 | CCC1C(C(=O)Nc2cc3cc(N4CCN(C5(C)COCC5O)CC4)c(Cl)cc3cn2)C1c1ccn(C)n1 (single isomer, unassigned) [Ex-10.65, (1R,2R,3R, or 1R,2S,3R, or 1S,2R,3S, or 1S,2S,3S)-N-[7-chloro-6-[4-( (3R,4R or 3S,4S)-4-hydroxy-3-methyl-tetrahydrofuran-3-yl)piperazin-1-yl]-3-isoquinolyl]-2-ethyl-3-(1-methylpyrazol-3-yl)cyclopropanecarboxamide] | 0.0813 nM
19 | CC1(N2CCN(c3cc4cc(NC(=O)C5CCC5C#N)ncc4cc3Cl)CC2)COCC1F (single isomer, unassigned) [Ex-10.67, (1R,2R or 1S,2S)-N-[7-chloro-6-[4-((3R,4R or 3S,4S)-4-fluoro-3-methyl-tetrahydrofuran-3-yl)piperazin-1-yl]-3-isoquinolyl]-2-cyano-cyclobutanecarboxamide] | 0.102 nM
20 | CC1(N2CCN(c3cc4cc(NC(=O)C5CCC5C#N)ncc4cc3Cl)CC2)COCC1F (single isomer, unassigned) [Ex-10.68, (1R,2R or 1S,2S)-N-[7-chloro-6-[4-((3R,4R or 3S,4S)-4-fluoro-3-methyl-tetrahydrofuran-3-yl)piperazin-1-yl]-3-isoquinolyl]-2-cyano-cyclobutanecarboxamide] | 0.0813 nM
21 | CC1(N2CCN(c3cc4cc(NC(=O)C5CC5C5CCOCC5)ncc4cc3Cl)CC2)COCC1F (single isomer, unassigned) [Ex-10.69, (1R,2R or 1S,2S)-N-[7-chloro-6-[4-((3R,4R or 3S,3S)-4-fluoro-3-methyl-tetrahydrofuran-3-yl)piperazin-1-yl]-3-isoquinolyl]-2-tetrahydropyran-4-yl-cyclopropanecarboxamide] | 0.0813 nM
22 | CC1(N2CCN(c3cc4cc(NC(=O)C5CC5C(F)F)ncc4cc3Cl)CC2)COCC1F (single isomer, unassigned) [Ex-10.75, (1R,2R or 1S,2S)-N-[7-chloro-6-[4-((3R,4R or 3S,4S)-4-fluoro-3-methyl-tetrahydrofuran-3-yl)piperazin-1-yl]-3-isoquinolyl]-2-(difluoromethyl)cyclopropanecarboxamide] | 0.219 nM
